Entries after “also recorded” stand apart in the source; their conditions may differ.
How the values were obtained:
[1] = test system: bacteria; conditions: cited from earlier work; for antibacterial activity, previously shown: control peptides, for caerin 1.3 against most of the bacteria tested
Text: Its sequence is shown here for comparison with the synthetically modified caerin 1.1 peptide. Amino acid modifications to the caerin 1.1 and to the caerin 1.9 peptides are shown in bold type with gray shading. All of the peptides studied have many simil ...

[2] = test system: HIV; conditions: cited from earlier work; for inhibition of HIV infection, result in words: percent HIV infection of target T cells, 6.25–25 µM, replotted from a previous publication
Text: Its sequence is shown here for comparison with the synthetically modified caerin 1.1 peptide. Amino acid modifications to the caerin 1.1 and to the caerin 1.9 peptides are shown in bold type with gray shading. […] Thus, we first tested these four peptides for effects on growth of L. rhamnosus. […] To evaluate both parameters at once, we plotted the patterns of inhibition of HIV infection from a previous publication on the same axes as the new data for effects on L. rhamnosus and L. crispatus growth. […] Among all of the ...

[3] = test system: T lymphocytes or endocervical cell lines; conditions: cited from earlier work
[4] = test system: Lactobacillus rhamnosus, ATCC 39595; experiment: Bacterial growth assay, Lactobacillus rhamnosus; format: cell-based; conditions: for reduction of L. rhamnosus growth: vs no-peptide control; for inhibition of L. rhamnosus growth at highest concentration: 50 µM peptide (50 µm [sic]), one-way ANOVA with Tukey's post hoc test; for inhibition of L. rhamnosus growth, result in words: peptide tested at 0.4 or 0.8 to 50 µM; for viability as measured by 24-h growth of L. rhamnosus: range of concentrations 0.4–25 µM
Description: (§1) Bacterial strains were obtained from the American Type Culture Collection (Lactobacillus crispatus, ATCC® 33197™; Lactobacillus rhamnosus, ATCC® 39595™; Neisseria lactamica (ATCC® 23970™). Growth assays were conducted to determine the concentrations at which each peptide inhibited the growth of the three bacterial species. The Lactobacillus bacteria were grown in de Man, Rogosa, and Sharpe (MRS) broth and the N. lactamica in Fastidious Broth. Bacterial cells were cultured in broth for 24 to 48 h until they reached an optical density of about 0.1 O.D. units at 630 nm and diluted to achieve a concentration of 10^6 cells per mL. The peptides were serially diluted with sterile water to reach peptide concentrations of 0.4, 0.8, 1.6, 3.12, 6.25, 12.5, 25, and 50 µM final concentrations in culture. The bacterial cells at 10^6 cells/mL and the peptides were plated in triplicate in a 96-well plate. Included was a negative control for growth (three to five replicates of bacteria plus penicillin-streptomycin), a positive control for growth (three to five replicates of bacteria plus water), and a blank (three to five replicates of broth plus water) to ensure the broth was not contaminated. Bacterial cells were plated in 50 µL of broth, and each dilution of peptides was added in a volume of 50 µL to achieve a total volume of 100 µL. For the positive control, 50 µL of sterile water was added to 50 µL of cells in broth. For the negative control, 50 µL of the antibiotic solution was added to 50 µL of cells in broth. The O.D. of each well was recorded before and after a 24-h incubation period at 37 °C using a Biotek ELx808 reader (Biotek, Winooski, VT, USA). Data for representative experiments are expressed as average O.D. ± standard error of the mean at each peptide concentration. To express data from replicate experiments, the average as percent growth in comparison with the positive (no peptide) control set at 100% for the range of concentrations from 6.25–50 µM is shown. […] A p-value of less than 0.05 was considered significant.

[5] = test system: Lactobacillus crispatus, ATCC 33197; experiment: Bacterial growth assay, Lactobacillus crispatus; format: cell-based; conditions: 24 h, 37 °C, O.D. 630 nm; for inhibition of L. crispatus growth at highest concentration: 50 µM peptide, MRS broth; for inhibition of L. crispatus growth at lower concentrations: concentrations of 25 µM or less; for effect on L. crispatus growth, result in words: peptide tested at 0.4 or 0.8 to 50 µM
Description: as §1

[6] = test system: Neisseria lactamica (ATCC 23970); experiment: Bacterial growth assay, Neisseria lactamica; format: cell-based; conditions: tested twice; 0.8 to 50 µM; 24 h, 37 °C
Description: Bacterial strains were obtained from the American Type Culture Collection (Lactobacillus crispatus, ATCC® 33197™; Lactobacillus rhamnosus, ATCC® 39595™; Neisseria lactamica (ATCC® 23970™). Growth assays were conducted to determine the concentrations at which each peptide inhibited the growth of the three bacterial species. The Lactobacillus bacteria were grown in de Man, Rogosa, and Sharpe (MRS) broth and the N. lactamica in Fastidious Broth. Bacterial cells were cultured in broth for 24 to 48 h until they reached an optical density of about 0.1 O.D. units at 630 nm and diluted to achieve a concentration of 10^6 cells per mL. The peptides were serially diluted with sterile water to reach peptide concentrations of 0.4, 0.8, 1.6, 3.12, 6.25, 12.5, 25, and 50 µM final concentrations in culture. The bacterial cells at 10^6 cells/mL and the peptides were plated in triplicate in a 96-well plate. […] The O.D. of each well was recorded before and after a 24-h incubation period at 37 °C using a Biotek ELx808 reader (Biotek, Winooski, VT, USA). Data for representative experiments are expressed as average O.D. ± standard error of the mean at each peptide concentration. […]

[7] = 25 µM peptide, MRS broth, 24 h, 37 °C, O.D. 630 nm

| Substance | antibacterial spectrum [1] | inhibition of HIV (transmission), previous studies [2] | inhibition of HIV infection, result in words [2] | toxicity to T lymphocytes or endocervical cell lines [3] | reduction of L. rhamnosus growth [4, 7] | inhibition of L. rhamnosus growth at highest concentration ([4]; 24 h, 37 °C, O.D. 630 nm) | inhibition of L. rhamnosus growth, result in words ([4]; 24 h, 37 °C, O.D. 630 nm) | viability as measured by 24-h growth of L. rhamnosus [4] | inhibition of L. crispatus growth at highest concentration [5] | inhibition of L. crispatus growth at lower concentrations [5] | effect on L. crispatus growth, result in words [5] | average bacterial growth of L. rhamnosus ([4]; 25 µM peptide, percent growth vs no-peptide control set at 100%, 10^6 cells/mL, MRS broth, 24 h, 37 °C, O.D. 630 nm, average of replicate experiments) | inhibition of N. lactamica growth, comparison in words [6] | antibacterial activity, previously shown [1] |
| --- | --- | --- | --- | --- | --- | --- | --- | --- | --- | --- | --- | --- | --- | --- |
| GLFGILGSVAKHVLPHVIPVVAEHL-NH2 [caerin 1.20, caerin 1 antimicrobial peptide, origin L. caerulea/L. splendida] | wide-spectrum anti-bacterial agents | very effective inhibitors of HIV | slightly less effective in the inhibition of HIV | limited toxicity | 40–55% | significantly inhibited growth | slightly more inhibitory against L. rhamnosus than caerin 1.9 | remained quite high |  |  |  |  |  |  |
| GLFGVLGSIAKHVLPHVVPVIAEKL-NH2 [caerin 1.9, caerin 1 antimicrobial peptide, origin L. chloris] | wide-spectrum anti-bacterial agents | very effective inhibitors of HIV | best profile of inhibition of HIV | limited toxicity |  | significantly inhibited growth | least apparent inhibition of growth of both tested lactobacilli | remained quite high | inhibitory | almost no inhibition | least apparent inhibition of growth of both tested lactobacilli | about 83% |  |  |
| GLLSVLGSVAKHVLPHVVPVIAAAL-NH2 [caerin 1.1 mod 7, synthetically modified caerin 1.1 peptide] |  |  | equal or greater inhibition of HIV infection than caerin 1.9 |  |  |  | inhibited the growth of L. rhamnosus more than caerin 1.9; also recorded: inhibited growth to a greater extent than the previous four |  |  |  |  |  |  |  |
| GLLGVLGSVAKHVLPHVVPVIAEHL-NH2 [caerin 1.2, caerin 1 antimicrobial peptide, origin L. caerulea] | wide-spectrum anti-bacterial agents | very effective inhibitors of HIV | effective inhibitors of HIV infection | limited toxicity | 40–55% | significantly inhibited growth |  | remained quite high | inhibitory | almost no inhibition |  |  | less effective against N. lactamica than caerin 1.9 and caerin 1.10 |  |
| GLLSVLGSVAQHVLPHVVPVIAEHL-NH2 [caerin 1.3, caerin 1 antimicrobial peptide, origin L. caerulea; control peptide] |  |  | inhibited HIV less than caerin 1.9 |  |  |  | very limited inhibition of both species of lactobacilli; also recorded: almost no inhibition at any dose tested |  |  |  | largely unaffected; also recorded: very limited inhibition of both species of lactobacilli |  |  | reduced antibacterial activity |
| GLLSSLSSVAKHVLPHVVPVIAEHL-NH2 [caerin 1.4, caerin 1 antimicrobial peptide, origin L. caerulea, L. gilleni; control peptide] |  |  | inhibited HIV less than caerin 1.9 |  |  |  | very limited inhibition of both species of lactobacilli; also recorded: almost no inhibition at any dose tested |  |  |  | largely unaffected; also recorded: very limited inhibition of both species of lactobacilli |  |  | reduced antibacterial activity |
| GLFGVLGSIAKHLLPHVVPVIAEKL-NH2 [caerin 1.9 sm, synthetic analog of caerin 1.9 with a single amino acid change] |  |  | equal or greater inhibition of HIV infection than caerin 1.9 |  |  |  | inhibited the growth of L. rhamnosus more than caerin 1.9; also recorded: inhibited growth to a greater extent than the previous four |  |  |  |  |  |  |  |
| GLLSVLGSVAKHVLPHVVPVIAEHL-NH2 [caerin 1.1, antimicrobial peptide from Litoria caerulea, reference compound] | wide-spectrum anti-bacterial agents | less effective in the inhibition of HIV transmission than other caerin family peptides |  |  |  |  |  |  |  |  |  |  |  |  |
| GLLSVLGSVAKHVLPHVVPVIAEKL-NH2 [caerin 1.10, caerin 1 antimicrobial peptide, origin L. splendida] | wide-spectrum anti-bacterial agents | very effective inhibitors of HIV | effective inhibitors of HIV infection | limited toxicity | 40–55% | significantly inhibited growth |  | remained quite high | no inhibition |  |  |  |  |  |

Reference: article PMC7600266, “Caerin 1 Antimicrobial Peptides that Inhibit HIV and Neisseria May Spare Protective Lactobacilli” (Antibiotics, 2020)
